These molecules were tested against T1, KRas G12C (Homo sapiens, UniProt P01116, C118S/C51S/C80L/G12C) (assay: KRas G12C Modification Assay (LCMS detection of covalent adduct)). Settings: 5 μM concentration for 3 hours; LC/MS of intact protein; higher POC = higher degree of modification.
T1 construct: GDP-loaded K-Ras (1-169) G12C, C51S, C80L, C118S
Format: binding
Procedure: A 10 μL aliquot of each protein solution was then transferred to a 384 well microtiter plate. Initial compound stocks were generated at fifty times their desired final assay concentration in DMSO.
Exemplary compounds of Formula (II) were diluted 25-fold into K-Ras Assay Buffer to a final of two times their final concentration. A 10 μL aliquot of each diluted compound solution was then added to each of the protein solutions in the microtiter plate to initiate reaction. […] At each time point, the reactions were quenched with 20 μL of a 25 mM acetic acid solution. […] Once all reactions were quenched, the plates were heat sealed and the samples were injected into a LC/MS system for data acquisition.
Samples were injected in their liquid phase onto a C-3 reverse phase column to remove assay buffer and prepare the samples for mass spectrometer. The proteins were eluted from the column using an acetonitrile gradient and fed directly into the mass analyzer. Initial raw data analysis took place in Agilent MassHunter software immediately post data acquisition.
Raw data analysis of the intact protein was exclusively a deconvolution of the multiple charge states of each protein in solution using a maximum entropy deconvolution provided in Mass Hunter. To minimize complexity, only the data over limited mass ranges were considered for analysis, with a minimum of one Dalton mass step intervals. The heights of all masses identified during raw data analysis were exported to be further analyzed in Spotfire® data analysis software.
Final data analysis was a multistep process in the Spotfire® data analysis software package. Briefly, each protein mass was calculated as a percent of the total signal of that sample, that percentage was then normalized to the percentage of signal of the protein in the absence of reactive compounds. Those normalized signals were reported as normalized percent of control (POC). […] Key: “A”≤25% POC; “B”>25% POC−≤50% POC; “C”>50% POC and ND=not determined.
In the case of `COC/C=C/C(=O)N1CCN(c2nc(OC[C@@H]3CCCN3C)nc3c2CCN(c2cccc4cccc(C)c24)C3)C[C@@H]1CC#N` [Example 40, 2-((S)-1-((E)-4-methoxybut-2-enoyl)-4-(7-(8-methylnaphthalen-1-yl)-2-(((S)-1-methylpyrrolidin-2-yl)methoxy)-5,6,7,8-tetrahydropyrido[3,4-d]pyrimidin-4-yl)piperazin-2-yl)acetonitrile], the “POC (normalized percent of control; degree of covalent modification of KRas G12C)” value is reported as “C (“C”>50% POC)”.
In the case of `C=C(OC)C(=O)N1CCN(c2nc(OC[C@@H]3CCCN3C)nc3c2CCN(c2cccc4cccc(C)c24)C3)C[C@@H]1CC#N` [Example 41, 2-[(2S)-1-(2-methoxyprop-2-enoyl)-4-[7-(8-methyl-1-naphthyl)-2-[[(2S)-1-methylpyrrolidin-2-yl]methoxy]-6,8-dihydro-5H-pyrido[3,4-d]pyrimidin-4-yl]piperazin-2-yl]acetonitrile], the “POC (normalized percent of control; degree of covalent modification of KRas G12C)” value is reported as “A (“A”≤25% POC)”.
For `CN1CCC[C@H]1COc1nc2c(c(N3CCN(C(=O)/C=C/CO)[C@@H](CC#N)C3)n1)CCN(c1cccc3cccc(Cl)c13)C2` [Example 42, 2-[(2S)-4-[7-(8-chloro-1-naphthyl)-2-[[(2S)-1-methylpyrrolidin-2-yl]methoxy]-6,8-dihydro-5H-pyrido[3,4-d]pyrimidin-4-yl]-1-[(E)-4-hydroxybut-2-enoyl]piperazin-2-yl]acetonitrile], the “POC (normalized percent of control; degree of covalent modification of KRas G12C)” value was “C (“C”>50% POC)”.
With `C=C(OC)C(=O)N1CCN(c2nc(OC[C@@H]3CCCN3C)nc3c2CCN(c2cccc4cccc(Cl)c24)C3)C[C@@H]1CC#N` [Example 43, 2-[(2S)-4-[7-(8-chloro-1-naphthyl)-2-[[(2S)-1-methylpyrrolidin-2-yl]methoxy]-6,8-dihydro-5H-pyrido[3,4-d]pyrimidin-4-yl]-1-(2-methoxyprop-2-enoyl)piperazin-2-yl]acetonitrile] the “POC (normalized percent of control; degree of covalent modification of KRas G12C)” value was “A (“A”≤25% POC)”.
`COC/C=C/C(=O)N1CCN(c2nc(OC[C@@H]3CCCN3C)nc3c2CCN(c2cccc4cccc(Cl)c24)C3)C[C@@H]1CC#N` [Example 53, 2-((S)-4-(7-(8-chloronaphthalen-1-yl)-2-(((S)-1-methylpyrrolidin-2-yl)methoxy)-5,6,7,8-tetrahydropyrido[3,4-d]pyrimidin-4-yl)-1-((E)-4-methoxybut-2-enoyl)piperazin-2-yl)acetonitrile] was tested, and the “POC (normalized percent of control; degree of covalent modification of KRas G12C)” value was “C (“C”>50% POC)”.
`C=C(NC(C)=O)C(=O)N1CCN(c2nc(OC[C@@H]3CCCN3C)nc3c2CCN(c2cccc4cccc(C)c24)C3)C[C@@H]1CC#N` [Example 54, N-(3-((S)-2-(cyanomethyl)-4-(7-(8-methylnaphthalen-1-yl)-2-(((S)-1-methylpyrrolidin-2-yl)methoxy)-5,6,7,8-tetrahydropyrido[3,4-d]pyrimidin-4-yl)piperazin-1-yl)-3-oxoprop-1-en-2-yl)acetamide] was tested, and the “POC (normalized percent of control; degree of covalent modification of KRas G12C)” value was “B (“B”>25% POC−≤50% POC)”.
For `Cc1cccc2cccc(N3CCc4c(nc(OC[C@@H]5CCCN5C)nc4N4CCN(C(=O)/C=C/c5ccncc5)[C@@H](CC#N)C4)C3)c12` [Example 55, 2-((S)-4-(7-(8-methylnaphthalen-1-yl)-2-(((S)-1-methylpyrrolidin-2-yl)methoxy)-5,6,7,8-tetrahydropyrido[3,4-d]pyrimidin-4-yl)-1-((E)-3-(pyridin-4-yl)acryloyl)piperazin-2-yl)acetonitrile], the “POC (normalized percent of control; degree of covalent modification of KRas G12C)” value was “C (“C”>50% POC)”.
